In US12521425B2, “Method of liver cancer treatment with safranal-based formulations” (priority 2019, dated 2026):

Experiments:
[1] = tested on: DEN-induced hepatic neoplasia; experiment: Western blotting of liver in DEN-induced HCC model; format: in vivo, male Wistar rats; conditions: liver of HCC rats
Procedure: (§1) A modified version of the protocol described by DePeralta et al. (2016) and Schiffer et al. (2005) was used here to establish the hepatocarcinogenesis model.
(§2) On the first 15 weeks, the control PBS group was treated with 1×PBS, whereas the experimental groups were given an intraperitoneal injection (IP) of 50 mg/kg of diethylnitrosoamine (DEN, Sigma Aldrich), a widely used chemical for inducing cancer, once a week. DEN was diluted with 1×PBS. Following a one-week break (week 16), the next three weeks (weeks 17 to 19) of treatment commenced. All drugs were administrated by oral gavage. All doses were chosen according to literature (Alsaied et al., 2014; Karafakioglu et al., 2017). For the HCC+sorafenib group, the drug (Carbosynth Limited) was administered at a dose of 10 mg/kg, five days a week. For the HCC+safranal group, the drug (Sigma Aldrich) was administered at a dose of 200 mg/kg, five days a week. For the HCC+safranal+sorafenib group, the drugs were administered at a dose of 200 mg/kg safranal+10 mg/kg sorafenib, five days a week. Both safranal and sorafenib were diluted with 1×PBS and drops of Tween 80. […] After 24-hours from last treatment, the rats were euthanized by mild diethyl ether and dissected in equal conditions. Blood and whole liver were collected.
One hundredth gm (10 mg) liver was homogenized using 200 μl RIPA buffer (Sigma Aldrich) mixed with 2 μl protease inhibitor and 2 μl phosphatase inhibitor (Sigma Aldrich), and centrifuged at 4° C., 15,000 rpm for 15 minutes. Whole cell lysate was taken and stored at −80° C. Protein concentration was measured by Pierce BCA Protein Assay Kit with Promega GloMax Discover. A total of 35 μg of protein was loaded on a sodium dodecyl sulfate-polyacrylamide gel electrophoresis gel. The gel was then transferred to polyvinylidene difluoride membrane. The membrane was then blocked with 5% BSA in TBST for one hour at room temperature. Membranes were incubated with anti-Proliferating Cell Nuclear Antigen (PCNA), anti-PolyADP-ribose Polymerase (PARP), anti-caspase-3 (Cell Signaling Technology Inc.), anti-caspase-9 (Novus Biologicals), anti-Bax, anti-Bcl-2 (Santa Cruz), anti-Cdk1, anti-Cyclin B1, anti-Cdc25B (Cell Signaling Technology Inc.) over night at 4° C., then with HRP conjugated secondary, anti-mouse or anti-rabbit, antibody (Cell Signaling Technology Inc.) for one hour at room temperature. All primary and secondary antibodies were diluted in 5% BSA in TBST. Blots were incubated in WesternSure PREMIUM Chemiluminescent Substrate for antibodies' detection. Signal was visualized using Bio-Rad ChemiDoc XRS+System. Band density and quantification was done using ImageJ (Amin et al., 2011). Total protein was used as a loading control and stained using SYPRO Ruby protein gel stain according to the protocol provided (Thermo Fisher Scientific) (Aldridge et al., 2008; Hu et al., 2016).

[2] = tested on: DEN-induced hepatic neoplasia; experiment: Serum ALT and AST in DEN-induced HCC model; format: in vivo, male Wistar rats; conditions: HCC rats, oral gavage 5 days a week, weeks 17-19, safranal 200 mg/kg, sorafenib 10 mg/kg, mean±SEM, n=6
Procedure: as §1, §2
Rats were euthanized then blood was collected by decapitation and processed for later investigation. The blood was collected in collection tubes (BD Vacutainer) and serum was separated by centrifugation at 1200× g for 10 minutes. Serum was collected and flash frozen immediately then stored at −80° C. for further analysis.
Alanine Transaminase (ALT), and Aspartate Aminotransferase (AST) assays were performed using commercial kits (Abcam), according to the protocol provided. ALT and AST activities were measured spectrophotometrically using Epoch by BioTek.

[3] = male rats, oral (Hosseinzadeh et al., 2013); cited from earlier work
HepG2 cells = experiment: Caspase-3 and 7 activities (Caspase-Glo 3/7); format: cell-based; conditions: HepG2, 500 and 700 μM, 24 hours
Procedure: Caspase-3 and 7 activities. HepG2 were seeded at a density of 5000 cells/well in a 96-well plate, and were allowed to attach. After which, cells were treated with 500 and 700 μM of safranal for 24 hours. Caspase-3 and 7 activities were detected using Caspase-Glo® 3/7 Assay kit according to manufacturer instructions (Promega). Luminescent signal was detected using GloMax Discover System (Promega).

CC1=C(C=O)C(C)(C)CC=C1 [safranal]
Bax/Bcl-2 ratio [1]: favored the apoptotic effect
TDP1 levels [1]: lower levels of TDP1
expression of pro-caspases-9 & 3 and whole PARP ([1]; compared to HCC group): significantly decreased
expression of anti-apoptotic protein Bcl-2 ([1]; compared to HCC groups): decreased
expression of pro-apoptotic protein Bax ([1]; compared to HCC groups): increased
Cdk1, cyclin B1, Cdc25B levels ([1]; comparing to HCC animals): significantly decreased their levels
PCNA (proliferation-related protein) ([1]; n=4): significantly downregulated PCNA
ALT [2]: 10.93 ± 0.29^b**^,c* mU/ml
AST [2]: 7.80 ± 2.02 mU/ml
oral LD50 [3]: 5.53 mL/kg
activity of executioner caspases-3 and -7 (HepG2 cells): increased
